This note sets out measurements from patent US4404218A, “Antibiotic SF-2103A substance and process for production thereof” (Meiji Seika Kaisha Ltd., priority 1980, dated 1983).

Each structure is given as a SMILES string. Structures can show the parent of a compound that is named as a salt.

The subject of one data set is Proteus vulgaris M-8243. The data set is described as follows: synergistic effects with β-lactam antibiotics, paper disk inhibition zone.
The next data set deals with Proteus rettgeri GN 624. The description is as above.
The subject of data set [1] is Citrobacter freundii GN 346. The data set is described as above.
The subject of data set [2] is Staphylococcus aureus 209P. Kind of data set: antibacterial activity, agar dilution method. The data set is classed as cell-based. The conditions noted are these: Heart Infusion Agar, read-out: Minimum Inhibitory Concentration. In general terms: In agar dilution, organisms are placed on agar that contains the substance at set levels.
In data set [3] the test system is Staphylococcus aureus Smith. The data set is described as follows: antibacterial activity, agar dilution method. The note with it: Heart Infusion Agar, read-out: Minimum Inhibitory Concentration. The format is cell-based.
Data set [4] has as its system Bacillus subtilis ATCC 6633. Kind of data set: antibacterial activity, agar dilution method. The data set is classed as cell-based. The conditions noted are these: ATCC6633, Heart Infusion Agar, read-out: Minimum Inhibitory Concentration.
Another data set concerns Escherichia coli No. 29. Kind of data set: antibacterial activity, agar dilution method. The data set is classed as cell-based. The conditions noted are these: Heart Infusion Agar, read-out: Minimum Inhibitory Concentration. From the text:
In this determination, Heart Infusion Agar (produced by Eiken Chemical Co., Ltd.) was used as the medium.

Data set [5] deals with Escherichia coli NIHJ JC-2. Kind of data set: antibacterial activity, agar dilution method. The note with it: NIHJJC2, Heart Infusion Agar, read-out: Minimum Inhibitory Concentration. The data set is classed as cell-based.
Data set [6] concerns Klebsiella pneumoniae PCI 602. Kind of data set: antibacterial activity, agar dilution method. The format is cell-based. The conditions noted are these: PCI602, Heart Infusion Agar, read-out: Minimum Inhibitory Concentration.
The test system of the next data set is Proteus mirabilis GN 310. The data set is described as follows: antibacterial activity, agar dilution method. The format is cell-based. The conditions noted are these: GN310, Heart Infusion Agar, read-out: Minimum Inhibitory Concentration.
The test system of data set [7] is Proteus vulgaris GN 76/C-1. Kind of data set: antibacterial activity, agar dilution method. The data set is classed as cell-based. The conditions noted are these: GN76, Heart Infusion Agar, read-out: Minimum Inhibitory Concentration.
For a further data set, the system named is Proteus morganii Kono. Kind of data set: antibacterial activity, agar dilution method. The format is cell-based. The note with it: Morganella morganii, Heart Infusion Agar, read-out: Minimum Inhibitory Concentration.
Data set [8] has as its system Shigella dysenteriae Shigae. The data set is described as follows: microbe, parasite or virus in culture. The data set is classed as cell-based. The conditions noted are these: read-out: Minimum Inhibitory Concentration.
Data set [9] has as its system Citrobacter freundii GN 346. Kind of data set: antibacterial activity, agar dilution method. The data set is classed as cell-based. The note with it: GN346, Heart Infusion Agar, read-out: Minimum Inhibitory Concentration.
Data set [10] has as its system Serratia marcescens No. 1. Kind of data set: antibacterial activity, agar dilution method. The format is cell-based. The conditions noted are these: Heart Infusion Agar, read-out: Minimum Inhibitory Concentration.
The subject of data set [11] is Pseudomonas aeruginosa E-2. Kind of data set: antibacterial activity, agar dilution method. The format is cell-based. The conditions noted are these: E2, Heart Infusion Agar, read-out: Minimum Inhibitory Concentration.
A further data set in a line: toxicity (LD50). The note with it: in vivo, mice or rat. The procedure:
[…]. LD50 values by oral administration, intramuscular injection and intravenous injection were all higher than 2,000 mg/kg.

A short description of another data set: solubility. The format is physicochemical.
Another data set concerns Penicillinase. The data set is described as follows: β-lactamase inhibitory activity, modified Sargent's method. The format is biochemical. The note with it: at 10 ^.parallel.g/ml; substrate Penicilline G Potassium Salt. From the text:
The Sargent's method was partly modified as follows
Reagent A: Enzyme solution properly diluted with 0.1 M phosphate buffer (pH 7.0) as to show 0.6 optical density of consumption of iodine at 490 nm when measured under the undermentioned conditions.
Reagent B: 1.3% Penicillin G potassium salt aqueous solution for penicillinase assay. 1.3% Cefalotin sodium salt aqueous solution for cephalosporinase assay (β-lactamase of Proteus vulgaris M-8243 or Citrobacter freundii GN 346).
Reagent C: 0.1 M phosphate buffer (pH 7.0)
Reagent D: Iodine acetate buffer solution which is prepared by adding 5 ml of stock iodine solution* to 95 ml of pH 4.0 acetate buffer (80 g of anhydrous sodium acetate adjusted to pH 4.0 with acetic acid and made up to 2 liters with distilled water).
A reaction mixture consisted of 0.5 ml of Reagent B and 2 ml of Reagent C is pre-incubated for 5 min at 30° C., and 0.5 ml of Reagent A is added to it and kept for 30 min at 30° C. At the end of reaction, 5 ml of Reagent D is added with rapid mixing and kept for 10 min at 30° C., then the optical density at 490 nm is measured.
As the blank test, an incubation mixture containing 0.5 ml of Reagent B and 2 ml of Reagent C is kept at 30° C. for 30 min, after that 5 ml of Reagent D and 0.5 ml of Reagent A are added to it. Then the optical density is measured in the same way. […]

The target of data set [12] is T1, β-lactamase of Citrobacter freundii GN 346 (Citrobacter freundii, UniProt P05193).
T1 construct: cefalotin substrate
The data set is described as above. The note with it: read-out: 50% Inhibitory Concentration (I50) (converted). The data set is classed as biochemical.

The next data set in a line: stability. The format is physicochemical. From the text:
Furthermore, it is difficult to isolate the SF-2103A substance in a free acid form because it is, as described above, very unstable in an acidic state. The SF-2103A substance is therefore obtained as a salt thereof in a pale yellow or white amorphous powder form by freeze-drying a neutral aqueous solution thereof. The purity of the SF-2103A substance obtained varies depending on the potency of the culture broth.

In another data set the test system is Escherichia coli GN206. Kind of data set: mouse protection test, Experiment I. The note with it: observed 7 days, groups of five.
[13] abbreviates: β-lactam alone on 8 mm disk (Ampicillin 10 μg, Carbenicillin 2 μg, Cefalotin 2 μg, Cefaloridine 5 μg), 37° C., 16 hours.
Where [14] appears, read: SF-2103A alone, 1 μg per disk, listed as SF-2103A.

T1 sequence (P05193 21-381): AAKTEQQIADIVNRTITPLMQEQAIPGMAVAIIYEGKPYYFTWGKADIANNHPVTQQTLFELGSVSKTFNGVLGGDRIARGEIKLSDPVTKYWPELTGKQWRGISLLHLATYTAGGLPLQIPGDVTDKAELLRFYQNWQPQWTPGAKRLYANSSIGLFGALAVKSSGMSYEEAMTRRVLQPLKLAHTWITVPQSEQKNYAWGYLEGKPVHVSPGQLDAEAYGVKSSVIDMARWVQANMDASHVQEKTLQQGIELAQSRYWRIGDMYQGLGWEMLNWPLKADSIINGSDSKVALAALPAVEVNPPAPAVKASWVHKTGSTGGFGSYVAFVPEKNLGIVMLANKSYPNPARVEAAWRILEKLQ

For the molecule `CC1(C)S[C@@H]2[C@H](NC(=O)[C@H](N)c3ccccc3)C(=O)N2[C@H]1C(=O)O` [Ampicillin], the “Diameter of Inhibition Zone” value (in the data set on Proteus vulgaris M-8243 (setting [13]); with Proteus rettgeri GN 624 (setting [13]); in data set [1] (setting [13])) was 0 mm each time.

As for `CC1(C)S[C@@H]2[C@H](NC(=O)C(C(=O)O)c3ccccc3)C(=O)N2[C@H]1C(=O)O` (stereo partly drawn) [Carbenicillin], the “Diameter of Inhibition Zone” value (with Proteus vulgaris M-8243 (setting [13]); with Proteus rettgeri GN 624 (setting [13]); in data set [1] (setting [13])) was 0 mm throughout.

Consider `O=C(Cc1cccs1)N[C@@H]1C(=O)N2C(C(=O)[O-])=C(C[n+]3ccccc3)CS[C@H]12` [Cefaloridine], for which the “Diameter of Inhibition Zone” value (in the data set on Proteus vulgaris M-8243 (setting [13]); with Proteus rettgeri GN 624 (setting [13]); in [1] (setting [13])) was 0 mm in each case.

Consider `CC(=O)OCC1=C(C(=O)O)N2C(=O)[C@@H](NC(=O)Cc3cccs3)[C@H]2SC1` [Cefalotin], for which the “Diameter of Inhibition Zone” value (in the data set on Proteus vulgaris M-8243 (setting [13]); in the data set on Proteus rettgeri GN 624 (setting [13]); in data set [1] (setting [13])) was 0 mm throughout.

One may read the LD50 as the dose at which mortality reaches 50%. As for `CC(OS(=O)(=O)O)C1C(=O)N2C(C(=O)O)=C(S(=O)(=O)O)CC12` (stereo not drawn) [SF-2103A substance sodium salt], the MIC amounted to 25 µg/mL in data set [2]; 25 µg/mL in data set [3]; 50 µg/mL in [4]; 3.13 µg/mL with Escherichia coli No. 29; 12.5 µg/mL in data set [5]; 50 µg/mL in data set [6]. Besides, the MIC with Proteus mirabilis GN 310 came out at 50 µg/mL; in [7] it was 25 µg/mL; in the data set with Proteus morganii Kono it was 25 µg/mL; in data set [8], 3.13 µg/mL; in data set [9] it was 6.25 µg/mL; in data set [10], 50 µg/mL. The MIC in data set [11] is over 100 µg/mL. The LD50 in “toxicity (LD50)” (im, intramuscular injection) was over 2000 mg/kg; in “toxicity (LD50)” (intravenous injection), over 2000 mg/kg; in the data set “toxicity (LD50)” (oral administration), over 2000 mg/kg. Besides, the Solubility entry is reported as “insoluble” in the data set “solubility” (in benzene); “insoluble” in the data set “solubility” (in chloroform); “insoluble” in the data set “solubility” (in ethyl acetate); “soluble” in “solubility” (in methanol); “Freely soluble” in “solubility” (in water).

`CC(OS(=O)(=O)O)C1C(=O)N2C(C(=O)O)=C(S(=O)(=O)O)CC12` (stereo not drawn) [SF-2103A substance]: in the data set on Penicillinase, the “Inhibitory Ratio” value is recorded as 34.4%. Moreover, in data set [12], the IC50 is 504 nM. In addition, the stability result in “stability” (acidic state (free acid form)) is given as “very unstable”; in “stability” (temperatures higher than room temperature, acidic or alkaline state), “extremely unstable”. The “survival of infected mice” value with Escherichia coli GN206 (1 mg/mouse subcutaneously twice at one and two hours after intraperitoneal infection) is reported as “four of the five mice survived”; with Escherichia coli GN206 (2 mg/mouse subcutaneously once at one hour after intraperitoneal infection) it was “two of the five mice survived”. Also, the “Diameter of Inhibition Zone” value is reported as “does not show the inhibition zone” in the data set on Proteus vulgaris M-8243 (SF-2103A alone, 1 μg per disk); 0 mm in the data set with Proteus vulgaris M-8243 (setting [14]); “does not show the inhibition zone” in the data set with Proteus rettgeri GN 624 (SF-2103A alone, 1 μg per disk); 0 mm in the data set with Proteus rettgeri GN 624 (setting [14]); “does not show the inhibition zone” in data set [1] (SF-2103A alone, 1 μg per disk); 0 mm in data set [1] (setting [14]).
